Literature values as cited in patent US6833085B2, “Agent for restricting elution of phosphorus, method for producing the same, and method of restricting elution of phosphorus in sludge” (priority 2003, dated 2004).
Read-outs that look alike come from different tables or passages of the source.

Settings: for Amount of diluted phosphorus: aqueous solution added into sludge

Compound: O=[N+]([O-])[O-].O=[N+]([O-])[O-].[Ca+2] [Calcium nitrate, calcium nitrate]
- Amount of diluted phosphorus (concentration 0.35%): 67 µg/L
- Amount of diluted phosphorus (concentration 0.70%): 13 µg/L
- Inhibition of elution of phosphorus (injecting a 0.7% aqueous solution): 98%

Compound: [Cl][Fe]([Cl])[Cl] [Ferric chloride, ferric chloride]
- Amount of diluted phosphorus (concentration 0.16%): 234 µg/L
- Amount of diluted phosphorus (concentration 0.32%): 402 µg/L

Compound: alum
- Amount of diluted phosphorus (concentration 0.21%): 407 µg/L
- Amount of diluted phosphorus (concentration 0.42%): 490 µg/L
